Measurements reported in PubChem BioAssay (NCI).
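Values below derive from 48-hour exposures of cells grown in 96-well plates, with endpoints linearly interpolated between the two concentrations bracketing the appropriate inhibition level. GI50 = concentration required for 50% inhibition of growth. The concentration for full growth arrest is given as TGI.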

Key:
Assay in all cases: NCI tumour cell line growth inhibition, 48 h
[1] = tested on: 786-0 renal
[2] = tested on: A498 renal
[3] = tested on: A549 NSCLC
[4] = tested on: ACHN renal
[5] = tested on: BT-549 breast
[6] = tested on: CAKI-1 renal
[7] = tested on: CCRF-CEM leukemia
[8] = tested on: COLO 205 colon
[9] = tested on: DU-145 prostate
[10] = tested on: HCC-2998 colon
[11] = tested on: HCT-116 colon
[12] = tested on: HCT-15 colon
[13] = tested on: HL-60(TB) leukemia
[14] = tested on: HOP-62 NSCLC
[15] = tested on: HS 578T breast
[16] = tested on: HT29 colon
[17] = tested on: IGROV1 ovarian
[18] = tested on: K-562 leukemia
[19] = tested on: KM12 colon
[20] = tested on: LOX IMVI melanoma
[21] = tested on: M14 melanoma
[22] = tested on: MALME-3M melanoma
[23] = tested on: MCF7 breast
[24] = tested on: MDA-MB-231 breast
[25] = tested on: MDA-MB-435
[26] = tested on: MOLT-4 leukemia
[27] = tested on: NCI-H226 lung
[28] = tested on: NCI-H23 lung
[29] = tested on: NCI-H460 lung
[30] = tested on: NCI-H522 lung
[31] = tested on: NCI/ADR-RES ovarian
[32] = tested on: OVCAR-3 ovarian
[33] = tested on: OVCAR-4 ovarian
[34] = tested on: OVCAR-5 ovarian
[35] = tested on: PC-3 prostate
[36] = tested on: RPMI-8226 leukemia
[37] = tested on: RXF 393 renal
[38] = tested on: SF-268 CNS
[39] = tested on: SF-295 CNS
[40] = tested on: SF-539 CNS
[41] = tested on: SK-MEL-2 melanoma
[42] = tested on: SK-MEL-28 melanoma
[43] = tested on: SK-MEL-5 melanoma
[44] = tested on: SK-OV-3 ovarian
[45] = tested on: SN12C renal
[46] = tested on: SNB-19 CNS
[47] = tested on: SNB-75 CNS
[48] = tested on: SR leukemia
[49] = tested on: SW-620 colon
[50] = tested on: T-47D breast
[51] = tested on: TK-10 renal
[52] = tested on: U251 CNS
[53] = tested on: UACC-257 melanoma
[54] = tested on: UACC-62 melanoma
[55] = tested on: UO-31 renal

C/C(=N\Nc1cc(C)c2cc(C)ccc2n1)c1ccccn1
GI50 [1]: 0.105 µM
TGI [1]: 1.27 µM
GI50 [2]: 0.134 µM
TGI [2]: 3.68 µM
GI50 [3]: < 0.049 µM
TGI [3]: 1.14 µM
GI50 [4]: < 0.0424 µM
TGI [4]: 1.14 µM
GI50 [5]: 0.276 µM
TGI [5]: 17.2 µM
TGI [6]: 0.261 µM
GI50 [7]: < 0.0276 µM
TGI [7]: 0.356 µM
GI50 [8]: < 0.0201 µM
TGI [8]: 1.17 µM
GI50 [9]: 0.0737 µM
TGI [9]: 4.8 µM
GI50 [10]: < 0.0501 µM
TGI [10]: 1.47 µM
GI50 [11]: < 0.0497 µM
TGI [11]: 1.36 µM
TGI [12]: 1.93 µM
GI50 [13]: < 0.0431 µM
TGI [13]: 0.129 µM
GI50 [14]: 0.055 µM
TGI [14]: 1.41 µM
GI50 [15]: 1.16 µM
TGI [15]: 6.87 µM
GI50 [16]: < 0.0407 µM
TGI [16]: 1.65 µM
TGI [17]: 0.425 µM
GI50 [18]: 0.095 µM
TGI [18]: 1.43 µM
GI50 [19]: 0.0772 µM
TGI [19]: 1.79 µM
GI50 [20]: 0.0744 µM
TGI [20]: 1.23 µM
GI50 [21]: 0.0684 µM
TGI [21]: 1.32 µM
GI50 [22]: 0.123 µM
TGI [22]: 1.27 µM
GI50 [23]: 0.0866 µM
TGI [23]: 1.16 µM
GI50 [24]: < 0.0303 µM
TGI [24]: 1.54 µM
GI50 [25]: 0.145 µM
TGI [25]: 1.79 µM
TGI [26]: 0.361 µM
GI50 [27]: 0.0366 µM
TGI [27]: 1.05 µM
GI50 [28]: 0.139 µM
TGI [28]: 10.2 µM
GI50 [29]: 0.187 µM
TGI [29]: 1.22 µM
GI50 [30]: < 0.0472 µM
TGI [30]: 0.124 µM
GI50 [31]: 0.0666 µM
TGI [31]: 3.85 µM
GI50 [32]: < 0.0206 µM
TGI [32]: 1.31 µM
GI50 [33]: 0.0303 µM
TGI [33]: 0.367 µM
TGI [34]: 2.08 µM
TGI [35]: 2.32 µM
GI50 [36]: 0.079 µM
TGI [36]: 1.96 µM
GI50 [37]: 0.113 µM
TGI [37]: 1.53 µM
GI50 [38]: 0.047 µM
TGI [38]: 1.62 µM
TGI [39]: 0.278 µM
GI50 [40]: 0.0573 µM
TGI [40]: 0.263 µM
GI50 [41]: 0.0706 µM
TGI [41]: 10.8 µM
GI50 [42]: 0.135 µM
TGI [42]: 1.77 µM
GI50 [43]: 0.0827 µM
TGI [43]: 1.27 µM
GI50 [44]: 0.0743 µM
TGI [44]: 7.21 µM
GI50 [45]: 0.0607 µM
TGI [45]: 4.12 µM
GI50 [46]: 0.145 µM
TGI [46]: 13.7 µM
GI50 [47]: 0.205 µM
TGI [47]: 2.18 µM
GI50 [48]: < 0.031 µM
TGI [48]: 0.491 µM
TGI [49]: 1.98 µM
GI50 [50]: < 0.0464 µM
TGI [50]: 1.46 µM
TGI [51]: 2.82 µM
GI50 [52]: < 0.0393 µM
TGI [52]: 1.16 µM
GI50 [53]: 0.0818 µM
TGI [53]: 0.312 µM
GI50 [54]: 0.0794 µM
TGI [54]: 0.375 µM
GI50 [55]: < 0.0447 µM
TGI [55]: 0.322 µM
